Results reported in patent publication US20220056123A1, “USE OF IL-1BETA BINDING ANTIBODIES” (NOVARTIS AG, priority 2018, published 2022).
Read-outs that look alike come from different tables or passages of the source.

Assays:
MDA-MB231 = experiment: TNBC MDA-MB231 xenograft in humanized BLT mice; type: in vivo, humanized mouse; settings: single agent arm, compared to isotype control
Protocol: • I. Tumor models: The role of IL-1β in tumor immunity and efficacy of IL-1β blocking antibodies were tested in the following preclinical models: • Xenograft tumors in humanized mouse models: NSCLC (H358), TNBC (MDA-MB231) and CRC (SW480) • Syngeneic tumor models: TNBC (4T1) and lung (LL-2) cancer • II. […] Combination treatments include chemotherapeutic agent, docetaxel (6.25 mg/Kg QW IV), PD-1 pathway inhibitors (anti-human PD-1, pembrolizumab 10 mg/Kg Q5D IP or anti-mouse PD-1, clone 1D2 10 mg/Kg QW IP) and anti-mouse VEGF blocking antibody (clone 4G3, 5 mg/Kg Q5D) were used in combination with anti-IL-1β antibody. Appropriate isotype controls were used. In all experiments, dosing was initiated after tumor implantation. • III. Experimental readouts: activity of therapeutic agents in preclinical models were assessed by the following: • Tumor volume was determined by measurement with calipers throughout the course of the study. Tumor weights in milligrams were determined at end of study • Immunohistochemistry analysis was performed on FFPE NSCLC (H358) xenograft tissue • Changes in immune populations in peripheral blood in CRC (SW480) xenograft humanized model and tumors in syngeneic models (4T1 and LL-2) were assessed by flow cytometry using markers for T cell, myeloid populations

mouse IL-1β = mouse IL-1β (Mus musculus, UniProt P10749); experiment: Cross-reactivity with mouse IL-1β; type: binding
[1] = tested on: CD34+ blood vessels in trabecular bone; experiment: Bone microvasculature after suppression of IL-1β signalling; type: in vivo, BALB/c nude mice and C57BL/6 mice
Protocol: FIG. 7. IL-1β in the bone microenvironment stimulates expansion of the bone metastatic niche. Effects of adding 40 pg/ml or 5 ng/ml recombinant IL-1β to MDA-MB-231 or T47D breast cancer cells is shown in (a) and effects on adding 20 pg/ml, 40 pg/ml or 5 ng/ml IL-1B on proliferation of HS5, bone marrow, or OB1, osteoblasts, are shown in b) and c) respectively. (d) IL-1 driven alterations to the bone vasculature was measured following CD34 staining in the trabecular region of the tibiae from 10-12-week old female IL-1R1 knockout mice. […] Data are shown as mean+/−SEM, *=P<0.01, **=P<0.001, ***=P<0.0001.
FIG. 8. Suppression of IL-1β signalling affects bone integrity and vasculature. […] Data shown are mean+/−SEM, *=P<0.01, **=P<0.001, ***=P<0.0001 compared with control.
(§1) To model human breast cancer metastasis to human bone implants two human bone discs were implanted subcutaneously into 10-week old female NOD SCID mice (n=10/group) under isofluorane anaesthetic. Mice received an injection of 0.003 mg vetergesic and Septrin was added to the drinking water for 1 week following bone implantation. Mice were left for 4 weeks before injecting 1×10^5 MDA-MB-231 Luc2-TdTomato, MCF7 Luc2 or T47D Luc2 cells in 20% Martigel/79% PBS/1% toluene blue into the two hind mammary fat pads. Primary tumor growth and development of metastases was monitored weekly using an IVIS […] system (Caliper Life Sciences) following sub-cutaneous injection of 30 mg/ml D-luciferin (Invitrogen). On termination of experiments mammary tumors, circulating tumor cells, serum and bone metastases were resected. RNA was processed for downstream analysis by real time PCR, and cell lysates were taken for protein analysis and whole tissue for histology as previously described (Nutter et al., 2014; Ottewell et al., 2014a). […] Tumor cells, serum, and bone were subsequently resected for downstream analysis. Bone metastases were investigated following injection of 5×10^5 MDA-MB-231 GFP (control), MDA-MB-231-IV, MDA-MB-231-IL-1B-positive or MDA-MB-231-IL-1R1-positive cells into the lateral tail vein of 6 to 8-week old female BALB/c nude mice (n=12/group). Tumor growth in bones and lungs was monitored weekly by GFP imaging in live animals. Mice were culled 28 days after tumor cell injection at which timepoint hind limbs, lungs and serum were resected and processed for microcomputed tomography imaging (pCT), histology and ELISA analysis of bone turnover markers and circulating cytokines as described (Holen et al., 2016).

[2] = tested on: MDA-MB-231Luc2-TdTomato cells; experiment: Spontaneous human breast cancer metastasis to human bone implants; type: in vivo, NOD SCID mice
Protocol: FIG. 4. Pharmacological blockade of IL-1B inhibits spontaneous metastasis to human bone in vivo. Female NOD-SCID mice bearing two 0.5 cm^3 pieces of human femoral bone received intra-mammary injections of MDA-MB-231Luc2-TdTomato cells. […] All animals were culled 35 days following tumour cell injection. Effects on bone metastases (a) were assessed in vivo and immediately post-mortem by luciferase imaging and confirmed ex vivo on histological sections. Data are shown as numbers of photons per second emitted 2 minutes following sub-cutaneous injection of D-luciferin. Effects on numbers of tumour cells detected in the circulation are shown in (b). *=P<0.01. **=P<0.001. ***=P<0.0001.
as §1
Whole blood was centrifuged at 10,000×g for 5 minutes and the serum removed for ELISA assays. The cell pellet was re-suspended in 5 ml of FSM lysis solution (Sigma-Aldrich, Pool, UK) to lyse red blood cells. Remaining cells were re-pelleted, washed 3× in PBS and re-suspended in a solution of PBS/10% FCS. Samples from 10 mice per group were pooled prior to isolation of TdTomato positive tumor cells using a MoFlow High performance cell sorter (Beckman Coulter, Cambridge UK) with the […] laser line from a Coherent I-90C tenable argon ion (Coherent, Santa Clara, Calif.). TdTomato fluorescence was detected by a 555LP dichroic long pass and a 580/30 nm band pass filter. Acquisition and analysis of cells was performed using Summit 4.3 software. After sorting, cells were immediately placed in RNA protect cell reagent (Ambion, Paisley, Renfrew, UK) and stored at −80° C. before RNA extraction. For counting numbers of circulating tumor cells, TdTomato fluorescence was detected using a 561 nm laser and an YL1-A filter (585/16 emission filter). Acquisition and analysis of cells was performed using Attune N×T software.

[3] = tested on: patients with atherosclerosis who had had a myocardial infarction; settings: compared with placebo, median follow-up 3.7 years, cited from earlier work

Sequence of mouse IL-1β (P10749 118-269): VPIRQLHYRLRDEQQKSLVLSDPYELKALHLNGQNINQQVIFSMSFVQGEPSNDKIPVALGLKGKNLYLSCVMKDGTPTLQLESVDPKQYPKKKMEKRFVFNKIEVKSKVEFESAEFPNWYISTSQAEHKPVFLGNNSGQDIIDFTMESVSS

Substance: canakinumab: high-affinity, fully human monoclonal antibody of the IgG1/k to interleukin-1β
- animals with slower tumor growth (MDA-MB231): 100 % of animals
- cross-reactivity with mouse IL-1β (mouse IL-1β): does not cross-react to murine IL-1β
- cross-reactivity with mouse IL-1β (mouse IL-1β; listed as Canakinumab): does not cross-react with mouse IL-1β
- average length of CD34+ blood vessels in trabecular bone ([1]; IL-1Ra 1 mg/kg daily (BALB/c nude), canakinumab single dose (C57BL/6), p<0.01): reduced the average length
- endothelin 1 concentration (ELISA) ([1]; compared with control, p<0.01): reduced concentrations
- VEGF concentration (ELISA) ([1]; compared with control, p<0.01 IL-1R antagonist, p<0.001 canakinumab): reduced concentrations
- mice with metastasis detected in human bone implants ([2]; IL-1Ra 1 mg/kg daily, canakinumab sc every 14 days, from 7 days after tumor cell injection, control 7 out of 10): 1 out of 10
- size of bone metastases ([2]; luciferase imaging, vs control group): smaller than those detected in the control group
- tumor cells counted in whole blood ([2]; placebo 108 tumor cells/ml): 3 tumor cells/ml
- reductions in concentrations of hsCRP ([3]; dose-dependent (50, 150, 300 mg sc every 3 months)): 26-41%
- reductions in concentrations of interleukin 6 ([3]; dose-dependent): 25-43%
